Laboratory results published in the supplement of paper PMC11451515.

System: NOMO1
Test: cell viability relative to DMSO control; higher = less cytotoxic
Settings: 48 h
How it was run: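 NOMO1 or SEM (500 cells/well) or P12-Ichikawa (1000 cells/well) leukemia cells were adapted for at least four passages in each medium. They were seeded in 1536-well plates (5 μl) and pin-dosed with library compounds in DMSO over an 11-point threefold series, 47 μM to 0.79 nM. CellTiter-Glo One luminescence was read after 48 h at 37°C. Viability is the per-plate percentage relative to DMSO wells, with cell-free wells as background.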

[1] = HPLM + 10% dialyzed FBS, 0.000781 µM
[2] = HPLM + 10% dialyzed FBS, 0.00234 µM
[3] = HPLM + 10% dialyzed FBS, 0.00702 µM
[4] = HPLM + 10% dialyzed FBS, 0.0211 µM
[5] = HPLM + 10% dialyzed FBS, 0.0632 µM
[6] = HPLM + 10% dialyzed FBS, 0.19 µM
[7] = HPLM + 10% dialyzed FBS, 0.569 µM
[8] = HPLM + 10% dialyzed FBS, 1.71 µM
[9] = HPLM + 10% dialyzed FBS, 5.12 µM
[10] = HPLM + 10% dialyzed FBS, 15.4 µM
[11] = HPLM + 10% dialyzed FBS, 46.1 µM
[12] = RPMI 5 mM glucose + 10% FBS, 0.000781 µM
[13] = RPMI 5 mM glucose + 10% FBS, 0.00234 µM
[14] = RPMI 5 mM glucose + 10% FBS, 0.00702 µM
[15] = RPMI 5 mM glucose + 10% FBS, 0.0211 µM
[16] = RPMI 5 mM glucose + 10% FBS, 0.0632 µM
[17] = RPMI 5 mM glucose + 10% FBS, 0.19 µM
[18] = RPMI 5 mM glucose + 10% FBS, 0.569 µM
[19] = RPMI 5 mM glucose + 10% FBS, 1.71 µM
[20] = RPMI 5 mM glucose + 10% FBS, 5.12 µM
[21] = RPMI 5 mM glucose + 10% FBS, 15.4 µM
[22] = RPMI 5 mM glucose + 10% FBS, 46.1 µM
[23] = RPMI 5 mM glucose + 10% dialyzed FBS, 0.000781 µM
[24] = RPMI 5 mM glucose + 10% dialyzed FBS, 0.00234 µM
[25] = RPMI 5 mM glucose + 10% dialyzed FBS, 0.00702 µM
[26] = RPMI 5 mM glucose + 10% dialyzed FBS, 0.0211 µM
[27] = RPMI 5 mM glucose + 10% dialyzed FBS, 0.0632 µM
[28] = RPMI 5 mM glucose + 10% dialyzed FBS, 0.19 µM
[29] = RPMI 5 mM glucose + 10% dialyzed FBS, 0.569 µM
[30] = RPMI 5 mM glucose + 10% dialyzed FBS, 1.71 µM
[31] = RPMI 5 mM glucose + 10% dialyzed FBS, 5.12 µM
[32] = RPMI 5 mM glucose + 10% dialyzed FBS, 15.4 µM
[33] = RPMI 5 mM glucose + 10% dialyzed FBS, 46.1 µM

| SMILES | cell viability [1] [%] | cell viability [2] [%] | cell viability [3] [%] | cell viability [4] [%] | cell viability [5] [%] | cell viability [6] [%] | cell viability [7] [%] | cell viability [8] [%] | cell viability [9] [%] | cell viability [10] [%] | cell viability [11] [%] | cell viability [12] [%] | cell viability [13] [%] | cell viability [14] [%] | cell viability [15] [%] | cell viability [16] [%] | cell viability [17] [%] | cell viability [18] [%] | cell viability [19] [%] | cell viability [20] [%] | cell viability [21] [%] | cell viability [22] [%] | cell viability [23] [%] | cell viability [24] [%] | cell viability [25] [%] | cell viability [26] [%] | cell viability [27] [%] | cell viability [28] [%] | cell viability [29] [%] | cell viability [30] [%] | cell viability [31] [%] | cell viability [32] [%] | cell viability [33] [%] |
| --- | --- | --- | --- | --- | --- | --- | --- | --- | --- | --- | --- | --- | --- | --- | --- | --- | --- | --- | --- | --- | --- | --- | --- | --- | --- | --- | --- | --- | --- | --- | --- | --- | --- |
| ClC1=CC\2=C(OC3=C(C=CC=C3)\N=C2N4CCNCC4)C=C1 | 106 | 111 | 106 | 94.5 | 105 | 103 | 118 | 91.1 | 91.7 | 83.3 | 90.7 | 87 | 90.1 | 95.9 | 94.8 | 88.7 | 101 | 100 | 87.7 | 86.5 | 83.7 | 84 | 101 | 84 | 94.3 | 91.1 | 92.1 | 90.7 | 93.3 | 90.6 | 90.7 | 88.4 | 91.1 |
| C[S+](=O)([O-])c1ccc(-c2cnc(N)c(C(=O)Nc3ccccc3)n2)cc1 | 113 | 119 | 128 | 126 | 118 | 145 | 123 | 103 | 115 | 52.1 | 56.1 | 110 | 110 | 112 | 110 | 111 | 133 | 113 | 116 | 110 | 87 | 98.4 | 95.6 | 93.1 | 99.7 | 104 | 106 | 113 | 117 | 112 | 110 | 75 | 69.3 |
| COC1=CC=C(C=C1O)C/2=C/C(=O)C3=C(O2)C=C(O)C=C3O | 93.3 | 108 | 108 | 108 | 114 | 100 | 95.3 | 98.4 | 94.4 | 93.9 | 110 | 96.4 | 86 | 82.8 | 87.4 | 94.5 | 93.7 | 96.8 | 88.2 | 95 | 105 | 102 | 91.3 | 90.5 | 85.5 | 100 | 105 | 89.8 | 83.6 | 89.5 | 82.5 | 92.5 | 98.2 |
| CN1\C(=C(\O)C2=C(C=CC=C2)[S+]1([O-])=O)C(=O)NC3=CC=CC=N3 | 107 | 138 | 110 | 122 | 122 | 129 | 105 | 107 | 102 | 58.2 | 29.1 | 109 | 101 | 108 | 116 | 117 | 123 | 113 | 109 | 123 | 43.9 | 21.2 | 87.5 | 103 | 100 | 100 | 113 | 99.2 | 116 | 94.6 | 99.6 | 108 | 35.3 |
| O=C\1N(N\C=C1[N]2C=CN=N2)C3=NC=NC(=C3)N4CCOCC4 | 81.9 | 84.5 | 82 | 83.9 | 25.7 | 25.8 | 26.3 | 23.8 | 28.3 | 28.4 | 26.6 | 71.2 | 83.9 | 82.7 | 87.8 | 71 | 16.8 | 12.8 | 14.9 | 15.6 | 14.2 | 16.5 | 70.9 | 79.4 | 81.5 | 88.9 | 72.9 | 29.9 | 14.4 | 19.6 | 18.6 | 19.4 | 18.8 |
| COC/1=C/C=C2\C(=C/C1=O)[C@H](CCC3=CC(=C(OC)C(=C23)OC)OC)NC(C)=O | 36.2 | 33.8 | 45.9 | 49.8 | 40.4 | 27 | 30.5 | 25.3 | 19.8 | 20 | 10.6 | 23.7 | 20 | 17.1 | 20.2 | 21.5 | 24.3 | 17.9 | 7.99 | 12.5 | 10.8 | 2.76 | 23.7 | 21.5 | 23.3 | 29.1 | 24.9 | 21.3 | 23.5 | 13.1 | 14.3 | 12.8 | 3.31 |
| CCC(=C/[C@H](C)C/C=C/C(C)=C/[C@@H](C)C(=O)[C@@H](C)[C@H](O)[C@@H](C)C/C(C)=C/C(=O)O)/C=C/[C@@H]1OC(=O)C=C[C@@H]1C | 118 | 115 | 109 | 107 | 118 | 123 | 125 | 83.8 | 4.07 | 2.4 | 13.2 | 104 | 101 | 110 | 99.2 | 114 | 114 | 109 | 110 | 3.02 | 1.72 | 14.7 | 99.7 | 108 | 113 | 107 | 122 | 120 | 120 | 90.2 | 3.22 | 2.11 | 14.7 |
